Each structure is given as a SMILES string.

The test addresses T1, human GPR43 receptor (hGPR43) (Homo sapiens, UniProt O15552).
T1 construct: expressed in transfected cells
T1 sequence (O15552 1-330): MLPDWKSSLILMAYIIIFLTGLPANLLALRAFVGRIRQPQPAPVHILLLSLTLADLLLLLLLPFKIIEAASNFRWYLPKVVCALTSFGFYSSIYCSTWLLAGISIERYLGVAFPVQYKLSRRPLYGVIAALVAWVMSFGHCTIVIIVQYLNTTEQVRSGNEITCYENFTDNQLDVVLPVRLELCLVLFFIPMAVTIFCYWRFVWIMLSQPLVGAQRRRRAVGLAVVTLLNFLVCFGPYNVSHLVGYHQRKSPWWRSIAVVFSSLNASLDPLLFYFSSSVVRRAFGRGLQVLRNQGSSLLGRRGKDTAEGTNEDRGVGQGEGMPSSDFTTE
The test is described as follows: GTPγS binding assay (SPA method). In kind it is biochemical. The following applies: membranes expressing hGPR43; assay performed in the presence of SCFA; read-out: EC50 (nM) in GTPγ35S assay. An excerpt:
The following assay can be used for determination of GPR43 activation. When a GPCR is in its active state, either as a result of ligand binding or constitutive activation, the receptor couples to a G protein and stimulates the release of GDP and subsequent binding of GTP to the G protein. The alpha subunit of the G protein-receptor complex acts as a GTPase and slowly hydrolyses the GTP to GDP, at which point the receptor normally is deactivated. Activated receptors continue to exchange GDP for GTP. […] The assay uses the ability of GPCR to stimulate [^35S]GTPγS binding to membranes expressing the relevant receptors. The assay can, therefore, be used in the direct identification method to screen candidate compounds to endogenous or not endogenous GPCR.
Membrane extracts were prepared from cells expressing the human GPR43 receptor (hGPR43) as follows: the medium was aspirated and the cells were scraped from the plates in Ca^++ and Mg^++-free Phosphate-buffered saline (PBS). The cells were then centrifuged for 3 min at 1500 g and the pellets were resuspended in buffer A (15 mM Tris-HCl pH 7.5, 2 mM MgCl2, 0.3 mM EDTA, 1 mM EGTA) and homogenized in a glass homogenizer. […] Protein content was assayed by the Folin method.
The assay was performed in the presence of SCFA, and was used to determine the activity of the compounds of the invention.
The [^35S]GTPγS assay was incubated in 20 mM HEPES pH7.4, 100 mM NaCl, 10 μg/ml saponin, 30 mM of MgCl2, 10 μM of GDP, 5 μg membrane-expressing hGPR43, 250 μg of wheatgerm agglutinin beads (Amersham, ref: RPNQ001), a range concentration of compounds (from 30 μM to 1 nM) in a final volume of 100 μl for 30 min at room temperature. The SCFA propionate was used at 1 mM final concentration as positive control. The plates were then centrifuged for 10 minutes at 2000 rpm, incubated for 2 hours at room temperature and counted for 1 min in a scintillation counter (TopCount, PerkinElmer).
(In general: GTPγS is a poorly hydrolysed GTP analogue; its binding reports G protein activation.)

Consider `CN1CCOc2cc(-c3ccccc3-c3csc(N(C)C(=O)[C@@H](CC(=O)O)Cc4ccccc4)n3)cnc21` [Compound 182, (R)-3-benzyl-4-(methyl(4-(2-(4-methyl-3,4-dihydro-2H-pyrido[3,2-b][1,4]oxazin-7-yl)phenyl)thiazol-2-yl)amino)-4-oxobutanoic acid], for which the EC50 (commonly the concentration at which the effect is half-maximal) is 92 nM.

Regarding `O=C(O)/C=C\C(=O)Nc1nc(-c2ccccc2Cl)cs1` [Compound 10, (Z)-4-(4-(2-chlorophenyl)thiazol-2-ylamino)-4-oxobut-2-enoic acid], the concentration for a half-maximal effect (EC50) was found to be 405 nM.

Consider `COc1ccc(CC(CC(=O)O)C(=O)N(C)c2nc(-c3ccccc3Cl)cs2)cc1` (centres unmarked) [Compound 99, 4-((4-(2-chlorophenyl)thiazol-2-yl)(methyl)amino)-3-(4-methoxybenzyl)-4-oxobutanoic acid], for which the EC50 worked out at 567 nM.

On to `O=C(O)C[C@@H](C(=O)Nc1nc(-c2ccccc2Cl)cs1)c1ccccc1` [Compound 92, (R)-4-(4-(2-chlorophenyl)thiazol-2-ylamino)-4-oxo-3-phenylbutanoic], for which the concentration for a half-maximal effect (EC50) turned out to be 249 nM.

For `CC(C)C[C@H](CC(=O)O)C(=O)N(C)c1nc(-c2ccccc2Cl)cs1` [Compound 90, (R)-3-((4-(2-chlorophenyl)thiazol-2-yl)(methyl)carbamoyl)-5-methylhexanoic acid], the EC50 amounted to 88 nM.

Take `Cc1nc(CC(CC(=O)O)C(=O)N(C)c2nc(-c3ccccc3Cl)cs2)cs1` (centres unmarked) [Compound 209, 4-((4-(2-chlorophenyl)thiazol-2-yl)(methyl)amino)-3-((2-methylthiazol-4-yl)methyl)-4-oxobutanoic acid]: the EC50 amounted to 2470 nM.

For `Cc1ccc(-c2csc(NC(=O)[C@@H](CC(=O)O)Cc3ccccc3)n2)o1` [Compound 202, (R)-3-benzyl-4-((4-(5-methylfuran-2-yl)thiazol-2-yl)amino)-4-oxobutanoic acid], the 50% effective concentration (EC50) worked out at 1510 nM.

For the compound `Cc1cc(-c2csc(NC(=O)[C@@H](CC(=O)O)Cc3ccccc3)n2)c(C)s1` [Compound 102, (R)-3-benzyl-4-(4-(2,5-dimethylthiophen-3-yl)thiazol-2-ylamino)-4-oxobutanoic acid], the concentration giving a half-maximal response (EC50) came out at 442 nM.

As for `O=C(Nc1nc(-c2ccccc2Cl)cs1)[C@H]1CC=CC[C@H]1C(=O)O` (relative stereo) [Compound 98, cis-6-(4-(2-chlorophenyl)thiazol-2-ylcarbamoyl)cyclohex-3-enecarboxylic acid], the EC50 was 113 nM.

For `CN(C(=O)[C@@H](CC(=O)O)Cc1ccccc1)c1nc(-c2ccccc2-c2cnc3c(ccn3C)c2)cs1` [Compound 217, (R)-3-benzyl-4-(methyl(4-(2-(1-methyl-1H-pyrrolo[2,3-b]pyridin-5-yl)phenyl)thiazol-2-yl)amino)-4-oxobutanoic acid], the EC50 is 126 nM.

As for `COc1ccc(-c2ccc(Cl)c(-c3csc(N(C)C(=O)[C@@H](CC(=O)O)Cc4ccccc4)n3)c2)cn1` [Compound 177, (R)-3-benzyl-4-((4-(2-chloro-5-(6-methoxypyridin-3-yl)phenyl)thiazol-2-yl)(methyl)amino)-4-oxobutanoic acid], the half-maximal effective concentration (EC50) turned out to be 127 nM.

Consider `CN1CCOc2cc(-c3ccccc3-c3csc(N(C(=O)[C@@H](CC(=O)O)CC4CCCC4)C4CC4)n3)cnc21` [Compound 194, (R)-3-(cyclopentylmethyl)-4-(cyclopropyl(4-(2-(4-methyl-3,4-dihydro-2H-pyrido[3,2-b][1,4]oxazin-7-yl)phenyl)thiazol-2-yl)amino)-4-oxobutanoic acid], for which the EC50 is 30 nM.

`CN(C(=O)[C@H]1CC=CC[C@H]1C(=O)O)c1nc(-c2ccccc2Cl)cs1` (relative stereo) [Compound 100, cis-6-((4-(2-chlorophenyl)thiazol-2-yl)(methyl)carbamoyl)cyclohex-3-enecarboxylic acid]: the EC50 stood at 142 nM.

Consider `CN(C(=O)[C@@H](CC(=O)O)Cc1ccccc1)c1nc(-c2ccccc2-c2ccc(Cl)cc2)cs1` [Compound 149, (R)-3-benzyl-4-((4-(4′-chloro-[1,1′-biphenyl]-2-yl)thiazol-2-yl)(methyl)amino)-4-oxobutanoic acid], for which the EC50 came out at 225 nM.

Take `O=C(O)C[C@@H](Cc1ccccc1)C(=O)Nc1nc(-c2cccc(Cl)c2)cs1` [Compound 12, (R)-3-benzyl-4-(4-(3-chlorophenyl)thiazol-2-ylamino)-4-oxobutanoic acid]: the concentration for a half-maximal effect (EC50) was 424 nM.

As to `CN(C(=O)[C@@H](CC(=O)O)Cc1ccccc1)c1nc(-c2ccccc2C#N)cs1` [Compound 91, (R)-3-benzyl-4-((4-(2-cyanophenyl)thiazol-2-yl)(methyl)amino)-4-oxobutanoic acid], the EC50 is 354 nM.

As for `O=C(O)C[C@@H](Cc1ccc(F)cc1)C(=O)Nc1nc(-c2ccccc2Cl)cs1` [Compound 17, (R)-4-(4-(2-chlorophenyl)thiazol-2-ylamino)-3-(4-fluorobenzyl)-4-oxobutanoic acid], the EC50 worked out at 643 nM.

`COC(=O)CCN(C(=O)[C@@H](CC(=O)O)Cc1ccccc1)c1nc(-c2ccccc2Cl)cs1` [Compound 126, (R)-3-benzyl-4-((4-(2-chlorophenyl)thiazol-2-yl)(3-methoxy-3-oxopropyl)amino)-4-oxobutanoic acid]: the EC50 is 183 nM.

Take `CC(C)C[C@H](CC(=O)O)C(=O)Nc1nc(-c2ccccc2Cl)cs1` [Compound 19, (R)-3-(4-(2-chlorophenyl)thiazol-2-ylcarbamoyl)-5-methylhexanoic acid]: the EC50 worked out at 322 nM.

Regarding `O=C(O)C[C@@H](Cc1ccccc1)C(=O)Nc1ccc(-c2ccccc2Cl)cn1` [Compound 15, (R)-3-benzyl-4-(5-(2-chlorophenyl)pyridin-2-ylamino)-4-oxobutanoic acid], the EC50 was determined as 426 nM.

In the case of `CN(C(=O)[C@@H](CC(=O)O)Cc1ccccc1)c1nc(-c2ccccc2-c2ccoc2)cs1` [Compound 135, (R)-3-benzyl-4-((4-(2-(furan-3-yl)phenyl)thiazol-2-yl)(methyl)amino)-4-oxobutanoic acid], the EC50 came to 796 nM.

For the compound `CN(C(=O)C(CC(=O)O)CC1CC1)c1nc(-c2ccccc2Cl)cs1` (centres unmarked) [Compound 113, 4-((4-(2-chlorophenyl)thiazol-2-yl)(methyl)amino)-3-(cyclopropylmethyl)-4-oxobutanoic acid], the concentration for a half-maximal effect (EC50) is 226 nM.

On to `C=CCN(C(=O)[C@@H](CC(=O)O)Cc1ccccc1)c1nc(-c2ccccc2Cl)cs1` [Compound 22, (R)-4-(allyl(4-(2-chlorophenyl)thiazol-2-yl)amino)-3-benzyl-4-oxobutanoic acid], for which the 50% effective concentration (EC50) was 365 nM.

`O=C(O)C[C@@H](CC1CCCCC1)C(=O)Nc1nc(-c2ccccc2Cl)cs1` [Compound 18, (R)-4-(4-(2-chlorophenyl)thiazol-2-ylamino)-3-(cyclohexylmethyl)-4-oxobutanoic acid]: the EC50 worked out at 104 nM.

With `CCCC[C@H](CC(=O)O)C(=O)Nc1nc(-c2ccccc2Cl)cs1` [Compound 16, (R)-3-(4-(2-chlorophenyl)thiazol-2-ylcarbamoyl)heptanoic acid], the EC50 came out at 389 nM.

In the case of `COc1ncc(-c2ccccc2-c2csc(N(C(=O)[C@@H](CC(=O)O)CC3CCCC3)C3CC3)n2)cc1F` [Compound 220, (R)-3-(cyclopentylmethyl)-4-(cyclopropyl(4-(2-(5-fluoro-6-methoxypyridin-3-yl)phenyl)thiazol-2-yl)amino)-4-oxobutanoic acid], the concentration giving a half-maximal response (EC50) came out at 27 nM.

The values are drawn from US20110230477A1, “COMPOUNDS, PHARMACEUTICAL COMPOSITION AND METHODS FOR USE IN TREATING METABOLIC DISORDERS” (Euroscreen S.A., priority 2008, published 2011).
